The structures appear in SMILES notation.

Experiment in all cases: NCI60 one-dose screen
What all share (assay type): cell-based

Assay [1] has as its system SNB-75. The settings on record: Homo sapiens; SNB-75, 10 μM; read-out: Growth percent. The method, then: (§1) The screening results are presented in the Supplementary Materials (Table S1), where the cytotoxicity was determined for the 10 µM concentration. […] The negative numbers indicate significant decreases in the cell number. […] Compared to the reference chrysin (2), all phosphonium hybrids (3a–h) had significant antiproliferative activities. […] At the same time, it should be noted that more than 60% average reduction was also obtained in the case of the other examined conjugates (3a–h).
(§2) A detailed description of the NCI screening procedures, including the one-dose and five-dose tests, can be found in the Supplementary Materials, on the website of NCI [39], and in our previous work.
(§3) A detailed description of the NCI screening procedures can also be found on the website of NCI [39], and in our […]
(§4) All candidates were examined at first at a single high dose (10 μM) in the full NCI60 cell panel. The value reported for the one-dose test is growth relative to the no-drug control and relative to the time zero number of cells. This made possible the disclosure of both growth inhibition (numbers between 0 and 100) and lethality (numbers less than 0). For example, a value of 100 means no growth inhibition. A value of 20 would mean 80% growth inhibition. A value of 0 means no net growth over the course of the analysis. A value of −20 would mean 20% lethality. A value of −100 means all cells are dead. […]
(§5) concentration levels. The human tumor cell lines of the cancer screening panel were grown in RPMI 1640 medium containing 5% fetal bovine serum and 2 mM l-glutamine. Characteristically, cells were injected in 96-well microtiter plates in 0.1 mL at plating densities ranging from 5000 to 40,000 cells/well, depending on the doubling time of individual cell lines. After cell inoculation, the microtiter plates were incubated at 37 °C, 5% carbon dioxide, 95% air, and 100% relative humidity for 24 hours before the addition of tested compounds. After 24 hours, 2 plates of each cell line were fixed in situ with Cl3COOH (TCA), to represent a measurement of the cell population for each cell line at the time of drug addition (tz). Tested compounds were solubilized in DMSO at 400-fold the desired final maximum test concentration and stored frozen before application. In the course of the drug addition, an aliquot of frozen concentrate was thawed and diluted to twice the desired final maximum test concentration with a complete medium containing 50 μg mL−1 gentamicin. Additional four, 10-fold or ½ log serial dilutions were produced to furnish a total of five drug concentrations plus control. Aliquots of 0.1 mL of these different drug dilutions were added to the appropriate microtiter wells already containing 0.1 mL of medium, resulting in the required final drug concentrations.
(§6) Following drug addition, the plates were incubated at 37 °C, 5% carbon dioxide, 95% air, and 100% relative humidity for an additional 48 hours. For adherent cells, the test was finished by the addition of cold Cl3COOH. Cells were fixed in situ by the addition of 50 μL of cold 50% (w/v) Cl3COOH, and incubated at 4 °C for 1 hour. The supernatant was discarded, and the plates were washed with H2O (5×) and dried in air. Sulforhodamine B (SRB) solution (0.1 mL) at 0.4% (w/v) in 1% CH3COOH was added to each well, and plates were incubated at RT for 10 min. After staining, the unbound dye was removed by washing five times with 1% CH3COOH, and the plates were dried in the air. The bound stain is afterward solubilized with a 10 mM trizma base, and the absorbance is read on an automated plate reader at λ = 515 nm. Utilizing the seven absorbance measurements [time zero (tz), control growth (c), and test growth in the presence of the drug at the five concentration levels (ti)], the percentage growth was determined at each of the drug concentration levels. Growth inhibition (%) was calculated as:
(§7) [(ti − tz)/(c − tz)] × 100, for concentrations where ti ≥ tz (1) […]

The subject of assay [2] is A498. The settings on record: Homo sapiens; A498, 10 μM; read-out: Growth percent. How it is done:
as §1, §2, §3, §4, §5, §6, §7

Assay [3] deals with NCI/ADR-RES. The settings on record: Homo sapiens, read-out: Growth percent. The method, then: as §1, §2, §3, §4, §5, §6, §7
The test system of assay [4] is KM12. The settings on record: Homo sapiens; KM12, 10 μM; read-out: Growth percent. The method, then: as §1, §2, §3, §4, §5, §6, §7
For assay [5], the system named is OVCAR-8. The settings on record: Homo sapiens; OVCAR-8, 10 μM; read-out: Growth percent. The method, then: as §1, §2, §3, §4, §5, §6, §7
In assay [6] the test system is NCI-H460. The settings on record: Homo sapiens; NCI-H460, 10 μM; read-out: Growth percent. The method, then:
as §1, §2, §3, §4, §5, §6, §7

Assay [7] relates to U251. The settings on record: Homo sapiens, U-251; U251, 10 μM; read-out: Growth percent. How it is done:
as §1, §2, §3, §4, §5, §6, §7

Assay [8] relates to NCI-H522. The settings on record: Homo sapiens; NCI-H522, 10 μM; read-out: Growth percent. How it is done: as §1, §2, §3, §4, §5, §6, §7
Assay [9] concerns CCRF-CEM. The settings on record: Homo sapiens, read-out: Growth percent. How it is done: as §1, §2, §3, §4, §5, §6, §7
For assay [10], the system named is MALME-3M. The settings on record: Homo sapiens, read-out: Growth percent. How it is done: as §1, §2, §3, §4, §5, §6, §7
The subject of assay [11] is OVCAR-5. The settings on record: Homo sapiens; OVCAR-5, 10 μM; read-out: Growth percent. The method, then:
as §1, §2, §3, §4, §5, §6, §7

The test system of assay [12] is HCT-15. The settings on record: Homo sapiens; HCT-15, 10 μM; read-out: Growth percent. The method, then: as §1, §2, §3, §4, §5, §6, §7
For assay [13], the system named is RXF 393. The settings on record: Homo sapiens; RXF 393, 10 μM; read-out: Growth percent. How it is done:
as §1, §2, §3, §4, §5, §6, §7

Assay [14] has as its system IGROV1. The settings on record: Homo sapiens, IGROV-1; IGROV1, 10 μM; read-out: Growth percent. The method, then: as §1, §2, §3, §4, §5, §6, §7
The subject of assay [15] is K-562. The settings on record: Homo sapiens, K562; K-562, 10 μM; read-out: Growth percent. The method, then: as §1, §2, §3, §4, §5, §6, §7
Assay [16] concerns UACC-257. The settings on record: Homo sapiens; UACC-257, 10 μM; read-out: Growth percent. How it is done:
as §1, §2, §3, §4, §5, §6, §7

Assay [17] has as its system EKVX. The settings on record: Homo sapiens, read-out: Growth percent. How it is done: as §1, §2, §3, §4, §5, §6, §7
The test system of assay [18] is SF-295. The settings on record: Homo sapiens; SF-295, 10 μM; read-out: Growth percent. The method, then: as §1, §2, §3, §4, §5, §6, §7
Assay [19] deals with OVCAR-3. The settings on record: Homo sapiens; OVCAR-3, 10 μM; read-out: Growth percent. How it is done:
as §1, §2, §3, §4, §5, §6, §7

Assay [20] deals with HS 578T. The settings on record: Homo sapiens, read-out: Growth percent. The method, then: as §1, §2, §3, §4, §5, §6, §7
Assay [21] concerns SW-620. The settings on record: Homo sapiens; SW-620, 10 μM; read-out: Growth percent. The method, then: as §1, §2, §3, §4, §5, §6, §7

Regarding `Cc1ccc([P+](CCCCOc2cc(O)c3c(=O)cc(-c4ccccc4)oc3c2)(c2ccc(C)cc2)c2ccc(C)cc2)cc1` [3b], the activity at 10 µM in assay [1] was -78.4%; in assay [2] it was -81.5%; in assay [3], -65.7%; in assay [4], -75.5%; in [5] it was -30.1%; in assay [6], -47.8%. The activity at 10 µM in assay [7] is -50%; in assay [8], -74.4%; in assay [9] it was -70.5%; in assay [10], -57.9%; in assay [11], -80.3%; in assay [12], -88%. For the same compound, the activity at 10 µM is -74.8% in assay [13]; -46.9% in assay [14]; -4.21% in [15]; -72.2% in assay [16]; -88.3% in assay [17]; -91.3% in assay [18]. The activity at 10 µM was -88.2% in assay [19], -52.2% in assay [20] and -68.5% in assay [21].

Source of the values: publication PMC12652692, “Synthesis and In Vitro Anticancer Evaluation of Novel Phosphonium Derivatives of Chrysin” (International Journal of Molecular Sciences, 2025).
